Values quoted from earlier work as cited in patent US20240023554A1, “MICROPARTICLE COMPOSITIONS COMPRISING TRIFLUDIMOXAZIN” (BASF SE, priority 2020, published 2024).

Settings: background statement

solubility in water: only sparingly soluble in water
SMILES: C#CCN1C(=O)C(F)(F)Oc2cc(F)c(-n3c(=O)n(C)c(=S)n(C)c3=O)cc21 [Trifludimoxazin, 1,5-dimethyl-6-thioxo-3-[2,2,7-trifluoro-3-oxo-4-(prop-2-yn-1-yl)-3,4-dihydro-2H-1,4-benzoxazin-6-yl]-1,3,5-triazinane-2,4-dione]
